Patent US6342319B1, “Nonaqueous electrolyte secondary battery and method of manufacturing negative electrode” (Kabushiki Kaisha Toshiba, priority 1997, dated 2002)

Test: Acid dissociation constant pKa of the aromatic compound used as precursor material

Row | pKa | SMILES
1 | 3.5 to 4.5 | O=C(O)c1ccc(C(=O)O)c2ccccc12 [naphthalene-1,4-dicarboxylic acid]
2 | 4.2 | O=C(O)c1cccc2ccccc12 [naphthalene-1-carboxylic acid]
3 | 3.5 to 4.5 | O=C(O)c1ccc(C(=O)O)c(C(=O)O)c1 [benzene-1,2,4-tricarboxylic acid]
4 | 3.5 to 4.5 | O=C(O)c1cccc2cccc(C(=O)O)c12 [naphthalene-1,8-dicarboxylic acid]
5 | 3.5 to 4.5 | O=C(O)c1cc(C(=O)O)c(C(=O)O)cc1C(=O)O [benzene-1,2,4,5-tetracarboxylic acid]
6 | 3.5 to 4.5 | O=C(O)c1ccc(C(=O)O)c2c(C(=O)O)ccc(C(=O)O)c12 [naphthalene-1,4,5,8-tetracarboxylic acid]
7 | 3.5 to 4.5 | O=C(O)c1cccc(C(=O)O)c1 [benzene-1,3-dicarboxylic acid]

Row | SMILES | pKa
8 | O=C(O)c1ccc2c3ccc(C(=O)O)c4c(C(=O)O)ccc(c5ccc(C(=O)O)c1c25)c43 [perylene-3,4,9,10-tetracarboxylic acid] | 3.5 to 4.5

Test: physchem

Row | SMILES | pKa
9 | O=C(O)c1ccccc1C(=O)O [benzene-1,2-dicarboxylic acid] | 3.5 to 4.5
10 | O=C(O)c1ccc(C(=O)O)cc1 [benzene-1,4-dicarboxylic acid] | 3.5 to 4.5
